Measurements as given in ChEMBL document CHEMBL5727810, “GLP-1 receptor agonists and uses thereof” (2020).
pEC50: −log10 of the molar value.

Tests used:
[1] = CHO GLP-1R Clone H6 Assay 1: GLP-1R-mediated agonist activity was determined with a cell-based functional assay utilizing an HTRF (Homogeneous Time-Resolved Fluorescence) cAMP detection kit (cAMP HI Range Assay Kit; CisBio cat #62AM6PEJ) that measures cAMP levels in the cell. The method is a competitive immunoassay between native cAMP produced by the cells and exogenous cAMP labeled with the dye …
Description: The method is a competitive immunoassay between native cAMP produced by the cells and exogenous cAMP labeled with the dye d2. The tracer binding is visualized by a mAb anti-cAMP labeled with Cryptate. […] A 1 mL sample of the cell suspension in growth media was counted on a Becton Dickinson ViCell to determine cell viability and cell count per mL. […] Following the 30 minute incubation, 10 μL of labeled d2 cAMP and 10 μL of anti-cAMP antibody (both diluted 1:20 in cell lysis buffer; as described in the manufacturer's assay protocol) were added to each well of the assay plate. […] Raw data were converted to nM cAMP by interpolation from a cAMP standard curve (as described in the manufacturer's assay protocol) and the percent effect was determined relative to a saturating concentration of the full agonist GLP-17-36 (1 μM) included on each plate. EC50 determinations were made from agonist dose-response curves analyzed with a curve fitting program using a 4-parameter logistic dose response equation.

[2] = CHO GLP-1R Clone C6 Assay 2: GLP-1R-mediated agonist activity was determined with a cell-based functional assay utilizing an HTRF (Homogeneous Time-Resolved Fluorescence) cAMP detection kit (cAMP HI Range Assay Kit; Cis Bio cat #62AM6PEJ) that measures cAMP levels in the cell. The method is a competitive immunoassay between native cAMP produced by the cells and exogenous cAMP labeled with the dye …
Description: The method is a competitive immunoassay between native cAMP produced by the cells and exogenous cAMP labeled with the dye d2. The tracer binding is visualized by a mAb anti-cAMP labeled with Cryptate. The specific signal (i.e. energy transfer) is inversely proportional to the concentration of cAMP in either a standard or an experimental sample.The human GLP-1R coding sequence (NCBI Reference Sequence NP_002053.3, including naturally-occurring variant Leu260Phe) was subcloned into pcDNA5-FRT-TO and a clonal CHO cell line stably expressing a low receptor density was isolated using the Flp-In™ T-Rex™ System, as described by the manufacturer (ThermoFisher). […] Following the 30 minute incubation, 10 μL of labeled d2 cAMP and 10 μL of anti-cAMP antibody (both diluted 1:20 in cell lysis buffer; as described in the manufacturer's assay protocol) were added to each well of the assay plate. […] Raw data were converted to nM cAMP by interpolation from a cAMP standard curve (as described in the manufacturer's assay protocol) and the percent effect was determined relative to a saturating concentration of the full agonist GLP-1 (1 μM) included on each plate. EC50 determinations were made from agonist dose response curves analyzed with a curve fitting program using a 4-parameter logistic dose response equation.

| SMILES | pEC50 [1] | pEC50 [2] |
| --- | --- | --- |
| COCCn1c([C@H]2CC23CCN(c2cccc4c2OC(C)(c2ccc(Cl)cc2F)O4)CC3)nc2ccc(C(=O)OC)cc21 (some centres not stated) | 8.11 | 6.92 |
| COCCn1c(CN2CCN(c3cccc4c3O[C@@H](c3ccc(Cl)cc3F)O4)CC2)nc2ccc(C(=O)OC)cc21 | 8.18 | 6.59 |
| COCCn1c(C2CC23CCN(c2cccc4c2OC(C)(c2ccc(Cl)cc2F)O4)CC3)nc2ccc(C(=O)O)cc21 (configuration not stated) | – | < 4.70 |

Continued, values first:

| pEC50 [1] | pEC50 [2] | SMILES |
| --- | --- | --- |
| – | < 4.70 | COCCn1c(CN2CCC(c3cccc4c3OC(c3ccc(Cl)cc3F)O4)CC2)nc2ccc(C(=O)O)cc21 (single isomer, unassigned) |
| 8.35 | 7.42 | C[C@]1(c2ccc(Cl)cc2F)Oc2cccc(C3CCN(Cc4nc5ccc(C(=O)O)cc5n4Cc4ncco4)CC3)c2O1 |
| < 4.74 | < 4.70 | COCCn1c([C@@H]2CC23CCN(c2cccc4c2OC(C)(c2ccc(Cl)cc2F)O4)CC3)nc2ccc(C(=O)OC)cc21 (some centres not stated) |
| 6.06 | < 4.70 | COCCn1c(CN2CCN(c3cccc4c3O[C@H](c3ccc(Cl)cc3F)O4)CC2)nc2ccc(C(=O)OC)cc21 |
